From US7427599B2, “Biologically active peptide comprising Tyrosyl-seryl-valine(YSV)” (CMS Peptides Patent Holding Company Limited, priority 2003, dated 2008)
Marks after values point to notes of the source that are not given here. Peptide text beside a SMILES is read from it.

Experiments:
[1] = tested on: Human liver cancer BEL7402 cells; assay: Proliferation of cultured human liver cancer BEL7402 cells in vitro (MTT); type: cell-based; details: for % inhibition / OD value: 48 hours; for OD value: MTT OD570nm, negative control 0.36 ± 0.01
Procedure: Human liver cancer BEL7402 cells at logarithmic growth phase were detached by incubating for 2 to 3 minutes with phosphate buffer saline pH7.4 (PBS) containing 0.05% trypsin and 0.02% EDTA. The cells were examined by inverted phase contrast microscopy. The supernatant was removed after cytoplasm pyknosis and dilatation of cell compartment were observed. A few milliliters of RPMI-1640 culture medium with 10% FBS was added to terminate the digestion. The cells were harvested by gently blowing with a pipette. The suspended cells were collected by centrifugation at 150 g for 10 minutes, and washed twice by cold D-Hank's solution with re-suspension and centrifugation. The washed cells were re-suspended in RPMI-1640 medium with 10% FBS and adjusted to density of 5×10^4/ml. The treated BEL7402 cells were placed onto a 96 wells cell culture plate, 100 μl/well. The cells were incubated for 24 hours at 37° C., 5% CO2 for re-activation and attachment.
The experiment included three testing groups with different concentrations of YSV and a negative control. The final concentrations of YSV in culture medium were 20 μg/ml, 10 μg/ml, and 5 μg/ml. The YSV solution was replaced by RPMI-1640 culture medium with 10% FBS in the negative control group. Each group contained five parallel wells. The cells were incubated for 48 hours at 37° C., 5% CO2.
(§1) The cells were then pelleted by centrifugation at 150 g for 10 minutes. After the supernatant was removed, 100 μl/well MTT of 0.5 mg/ml in RPMI-1640 was added to the cell pellets and the cells were re-suspended by shaking for 2 minutes. Incubation was continued for 4 hours. The supernatant was removed after centrifugation at 150 g for 10 minutes. After blotted dry by filter paper, 100 μl/well 40 mM HCl-2-propanol was added to the cell pellets and shaken for 3 minutes. OD570nm of each well referenced at 630 nm was obtained by using ELISA reader.

[2] = tested on: Human cervical carcinoma Hela cells; assay: Inhibition of growth of human cervical carcinoma Hela cells in vitro (MTT); type: cell-based; details: for % inhibition / OD570 nm: 48 hours; for OD570 nm: MTT, negative control 0.24 ± 0.01
Procedure: Human cervical carcinoma Hela cells at logarithmic growth phase were detached by incubating for 2 to 3 minutes with PBS containing 0.05% trypsin and 0.02% EDTA. The cells were examined by inverted phase contrast microscopy. The supernatant was removed after cytoplasm pyknosis and dilatation of cell compartment were observed. A few milliliters of RPMI-1640 medium with 10% FBS were added to terminate the digestion. The cells were harvested by gently blowing with a pipette. The cells were collected by centrifugation at 150 g for 10 minutes, and washed twice by cold Hank's solution with re-suspension and centrifugation. The cell pellets were re-suspended in RPMI-1640 medium with 10% FBS and adjusted to density of 5×10^4/ml. The treated cells were placed onto a 96 wells cell culture plate, 100 μl/well. The cells were incubated for 24 hours at 37° C., 5% CO2 for re-activation and attachment.
The experiment included two testing groups with different concentrations of YSV in culture medium, and a negative control with culture medium only. The final concentrations of YSV were 10 μg/ml and 5 μg/ml. Each group contained five parallel wells. 100 μl/well testing solution was added to the treated cells. The cells were incubated for 48 hours at 37° C., 5% CO2.
as §1, with “were” for “were then”, “The” for “After the”, “discarded and” for “removed,”, “discarded” for “removed”, “OD570 nm” for “OD570nm”

melanoma B16 = assay: Growth of C57BL/6 mice-transplanted melanoma B16; type: in vivo; details: for The Inhibition rate (%) / Tumor weight: 20 consecutive days; for Tumor weight: saline 2.64 ± 0.68
Procedure: B16 cells were maintained in RPMI-1640 medium with 10% FBS at 37° C., 5% CO2. Mouse B16 melanoma culture at log phase was adjusted to 2.5×10^6/ml with Hank's solution. 0.2 ml of this was subcutaneously injected to the right axilla of healthy C57 BL/6 mice to form the melanoma mice model. […] From the next day after the tumor implantation, the general conditions of the mice and the growth of the tumor were observed daily. On the next day after the last test substance administration, the tumors were extirpated and the weights of tumor were measured. […] The results were presented as arithmetic mean ±SD. Statistical analysis was performed using the ANOVA test of the SPSS software.

[3] = tested on: A549 human pulmonary carcinoma; assay: A549 human pulmonary carcinoma xenograft in nude mice; type: in vivo, BALB/c (nu/nu) athymic nude mice; details: for Tumor inhibition index (%) / Tumor volume (cm^3) / Tumor weight: 40 days
Procedure: Healthy BALB/c (nu/nu) athymic nude mice (SPF, 4-5 weeks old, weighting 18-22 g) were purchased from Shanghai Tumor Academe of China Medical Academy of Science. In the first experiment, female was used. In the second experiment, male was used.
Select A549 human pulmonary carcinoma xenografts of diameter longer than 1 cm with good growth on nude mice. Aseptically excise the tumor mass, cut into pieces of 2-4 mm^3 and submerged in RPMI1640. Pulmonary carcinoma nude mice model was prepared by transplanting the tumor mass hypodermally to the back of healthy nude mice near to the neck via an incision at the ventral thorax.
The nude mice bearing A549 xenografts were randomly divided into groups of: saline control (0.2 ml/day), YSV groups of different dosages, and Cy control (0.2 mg/kg/day). The test substances were dissolved in 0.2 ml saline and administered intraperitoneally to the mice starting from the day after the transplantation, once per day for 40 consecutive days.
The general condition of the mice was observed daily. The mice were weighed every 3-4 days and the volume of the tumor was measured:
V=(⅙)πXYZ, where X, Y, and Z were the diameters of the tumor on the 3 planes.
The day after the last injection, the tumors were excised, weighted, and the volume measured. The tumors were examined for signs of necrosis. Tumor inhibition index=(average tumor weight of saline group−average tumor weight of test group)/average tumor weight of saline group×100%)
Statistical analysis was performed with SPSS software using one-way ANOVA analysis.

SMILES: CC(C)[C@H](NC(=O)[C@H](CO)NC(=O)[C@@H](N)Cc1ccc(O)cc1)C(=O)O [YSV, L-Tyrosyl-L-seryl-L-valine] (H-Tyr-Ser-Val-OH)
- inhibition of growth of BEL7402 cells in vitro (conclusion) ([1]; 5 μg/ml to 20 μg/ml, p<0.05): able to inhibit the growth of human hepatocellular carcinoma BEL7402 cells in vitro
- % inhibition ([1]; 5 μg/ml): 9.8%
- OD value ([1]; 5 μg/ml): 0.31 ± 0.01
- % inhibition ([1]; 10 μg/ml): 38.0%
- OD value ([1]; 10 μg/ml): 0.22 ± 0.01
- % inhibition ([1]; 20 μg/ml): 23.7%
- OD value ([1]; 20 μg/ml): 0.27 ± 0.01
- inhibition of growth of Hela cells in vitro (conclusion) ([2]; 5 μg/ml to 10 μg/ml, p<0.05): able to inhibit the growth of human cervical carcinoma Hela cells in vitro
- % inhibition ([2]; 5 μg/ml): 18.4%
- OD570 nm ([2]; 5 μg/ml): 0.22 ± 0.00
- % inhibition ([2]; 10 μg/ml): 19.6%
- OD570 nm ([2]; 10 μg/ml): 0.22 ± 0.01
- The Inhibition rate (%) (melanoma B16; 320 μg/kg/day intraperitoneal): 39.6%
- Tumor weight (melanoma B16; 320 μg/kg/day intraperitoneal): 1.60 ± 1.21 g
- The Inhibition rate (%) (melanoma B16; 640 μg/kg/day intraperitoneal): 44.6%
- Tumor weight (melanoma B16; 640 μg/kg/day intraperitoneal): 1.47 ± 0.92 g
- inhibition of growth of B16 melanoma in C57BL/6 mice (conclusion) (melanoma B16; suitable dosage, p<0.05 vs saline): able to inhibit the growth of B16 melanoma in C57BL/6 mice
- Tumor inhibition index (%) ([3]; experiment 1, female nude mice, 160 μg/kg/day i.p.): 32.8%
- Tumor volume (cm^3) ([3]; experiment 1, female nude mice, 160 μg/kg/day i.p., saline 1.87 ± 1.10): 0.92 ± 0.79* cm^3
- Tumor weight ([3]; experiment 1, female nude mice, 160 μg/kg/day i.p., saline 2.49 ± 1.02): 1.67 ± 0.97 g
- Tumor inhibition index (%) ([3]; experiment 1, female nude mice, 320 μg/kg/day i.p.): 32.2%
- Tumor volume (cm^3) ([3]; experiment 1, female nude mice, 320 μg/kg/day i.p., saline 1.87 ± 1.10): 0.84 ± 0.45* cm^3
- Tumor weight ([3]; experiment 1, female nude mice, 320 μg/kg/day i.p., saline 2.49 ± 1.02): 1.69 ± 0.70 g
- Tumor inhibition index (%) ([3]; experiment 1, female nude mice, 640 μg/kg/day i.p.): 37.4%
- Tumor volume (cm^3) ([3]; experiment 1, female nude mice, 640 μg/kg/day i.p., saline 1.87 ± 1.10): 1.17 ± 0.84 cm^3
- Tumor weight ([3]; experiment 1, female nude mice, 640 μg/kg/day i.p., saline 2.49 ± 1.02): 1.56 ± 1.08 g
- Tumor inhibition index (%) ([3]; experiment 2, male nude mice, 160 μg/kg/day i.p.): 50.8%
- Tumor volume (cm^3) ([3]; experiment 2, male nude mice, 160 μg/kg/day i.p., saline 1.34 ± 0.69): 0.78 ± 0.41 cm^3
- Tumor weight ([3]; experiment 2, male nude mice, 160 μg/kg/day i.p., saline 1.51 ± 0.79): 0.74 ± 0.31 g
- inhibition of growth of A549 xenograft in nude mice (conclusion) ([3]; suitable dosages, p<0.05 vs saline): able to inhibit the growth of nude mice-transplanted A549 human pulmonary carcinoma xenograft
